Assay: Monitoring of the plasma concentration of the main oligosaccharides of a VLMWH in human volunteers (plasma filtration + anion-exchange HPLC)
Assay type: in vivo
Procedure: A plasma sample with a volume of between 100 and 1000 μl is withdrawn and, if appropriate, the internal standard is added to the latter.
After homogenization, the resulting solution is introduced into a 30 kD Ultrafree 05 ultrafiltration cartridge (Millipore) rinsed beforehand with 250 μl of water by centrifuging at 10 000 rev/min for 5 minutes. The plasma is introduced into the upper part of the cartridge once or twice, if the amounts to be filtered are greater than 500 μl.
The cartridge is centrifuged at 10 000 rev/min for between 1 and 2 hours and then the filtrate is withdrawn. If appropriate, the second part of the plasma to be filtered is introduced into the upper part of the cartridge and the latter is again centrifuged. The exact amount of plasma introduced will have been weighed. The cartridge is centrifuged until the protein residue in the upper part of the cartridge represents no more than approximately 10% of the initial part.
The filtrate is withdrawn and 210 μl of 3M KCl per ml of plasma filtered are added to the concentrate.
After homogenization, the cartridge is centrifuged at 10 000 rev/min for between 1 and 4 hours. The cartridge is centrifuged until the protein residue in the upper part of the cartridge represents no more than approximately 10% of the initial part.
The second filtrate is withdrawn and 210 μl of 3M KCl per ml of plasma filtered are added a second time to the concentrate.
The third filtrate is withdrawn and 250 μl of water per ml of plasma filtered are added.
The filtrates are combined and diluted 5 fold in water, and the whole is injected directly in anion-exchange HPLC. Immediately before injection, the pH of the injected solution is adjusted to 3 by addition of 1N HCl.
The filtered plasma is analyzed by anion-exchange HPLC.
The columns used are IonPAc As11 columns (Dionex), with a length of 25 cm and an internal diameter of 2 mm. The detector used is a UV spectrophotometer equipped with an array of diodes.
The whole of the […] is injected after adjustment of the pH to 3 by addition of N HCl. The flow rate chosen is 0.22 ml/min; the column temperature is 40° C.
Elution is carried out in gradient mode. The two solutions used are:
Solvent A: NaH2PO4 2.5 mM, brought to pH 2.9 by addition of H3PO4
Solvent B: NaClO4 1N, NaH2PO4 2.5 mM, brought to pH 3.0 by addition of H3PO4
The elution gradient is as follows:
T=0 min: % B=3; T=40 min: % B=60; T=60 min: % B=80
A VLMWH with an average molecular weight of 2500 Da is administered at the target dose of 1.4 mg/kg to human volunteers. Blood samples are withdrawn at the times 0, 0.25 h, 0.5 h, 0.75 h, 1 h, 1.25 h, 1.5 h, 2 h, 2.5 h, 3 h, 3.5 h, 4 h, 4.5 h, 5 h, 6 h, 7 h, 8 h, 9 h, 10 h, 12 h, 14 h and 24 h after administration.
As the VLMWH used is a complex mixture of oligosaccharides, the study was limited to certain components chosen from this mixture.

[1] = 0 h after administration of VLMWH (2500 Da) 1.4 mg/kg
[2] = 0.25 h after administration of VLMWH (2500 Da) 1.4 mg/kg
[3] = 0.5 h after administration of VLMWH (2500 Da) 1.4 mg/kg
[4] = 0.75 h after administration of VLMWH (2500 Da) 1.4 mg/kg
[5] = 1 h after administration of VLMWH (2500 Da) 1.4 mg/kg
[6] = 1.25 h after administration of VLMWH (2500 Da) 1.4 mg/kg
[7] = 1.5 h after administration of VLMWH (2500 Da) 1.4 mg/kg
[8] = 2 h after administration of VLMWH (2500 Da) 1.4 mg/kg
[9] = 2.5 h after administration of VLMWH (2500 Da) 1.4 mg/kg
[10] = 3 h after administration of VLMWH (2500 Da) 1.4 mg/kg
[11] = 3.5 h after administration of VLMWH (2500 Da) 1.4 mg/kg
[12] = 4 h after administration of VLMWH (2500 Da) 1.4 mg/kg
[13] = 4.5 h after administration of VLMWH (2500 Da) 1.4 mg/kg
[14] = 5 h after administration of VLMWH (2500 Da) 1.4 mg/kg
[15] = 6 h after administration of VLMWH (2500 Da) 1.4 mg/kg
[16] = 7 h after administration of VLMWH (2500 Da) 1.4 mg/kg
[17] = 8 h after administration of VLMWH (2500 Da) 1.4 mg/kg
[18] = 9 h after administration of VLMWH (2500 Da) 1.4 mg/kg
[19] = 10 h after administration of VLMWH (2500 Da) 1.4 mg/kg
[20] = 12 h after administration of VLMWH (2500 Da) 1.4 mg/kg
[21] = 14 h after administration of VLMWH (2500 Da) 1.4 mg/kg

| plasma concentration [1] [µM] | plasma concentration [2] [µM] | plasma concentration [3] [µM] | plasma concentration [4] [µM] | plasma concentration [5] [µM] | plasma concentration [6] [µM] | plasma concentration [7] [µM] | plasma concentration [8] [µM] | plasma concentration [9] [µM] | plasma concentration [10] [µM] | plasma concentration [11] [µM] | plasma concentration [12] [µM] | plasma concentration [13] [µM] | plasma concentration [14] [µM] | plasma concentration [15] [µM] | plasma concentration [16] [µM] | plasma concentration [17] [µM] | plasma concentration [18] [µM] | plasma concentration [19] [µM] | plasma concentration [20] [µM] | Structure (SMILES) | further results |
| --- | --- | --- | --- | --- | --- | --- | --- | --- | --- | --- | --- | --- | --- | --- | --- | --- | --- | --- | --- | --- | --- |
| 0.00 | 0.05 | 0.10 | 0.10 | 0.10 | 0.12 | 0.11 | 0.11 | 0.09 | 0.08 | 0.09 | 0.10 | 0.10 | 0.09 | 0.08 | 0.10 | 0.07 | 0.07 | 0.07 | 0.08 | CC(=O)NC1C(OC2C(C(=O)O)OC(OC3C(COS(=O)(=O)O)OC(OC4C(C(=O)O)OC(OC5C(COS(=O)(=O)O)OC(O)C(NS(=O)(=O)O)C5O)C(OS(=O)(=O)O)C4O)C(NS(=O)(=O)O)C3OS(=O)(=O)O)C(O)C2O)OC(COS(=O)(=O)O)C(OC2OC(C(=O)O)=CC(O)C2O)C1O (stereo not shown) [ΔIIaIIsIs] | plasma concentration [21]: 0.07 µM; plasma concentration (24 h after administration of VLMWH (2500 Da) 1.4 mg/kg): 0.05 µM |
| 0.00 | 0.02 | 0.04 | 0.03 | 0.04 | 0.04 | 0.03 | 0.03 | 0.02 | 0.02 | 0.02 | 0.01 | 0.01 | 0.01 | 0.01 | 0.01 | 0.00 | 0.00 | 0.00 | 0.00 | O=C(O)C1=CC(O)C(OS(=O)(=O)O)C(OC2C(COS(=O)(=O)O)OC(OC3C(C(=O)O)OC(OC4C(COS(=O)(=O)O)OC(OC5C(C(=O)O)OC(OC6C(COS(=O)(=O)O)OC(O)C(NS(=O)(=O)O)C6O)C(OS(=O)(=O)O)C5O)C(NS(=O)(=O)O)C4O)C(OS(=O)(=O)O)C3O)C(NS(=O)(=O)O)C2O)O1 (stereo not shown) [ΔIsIsIs] | plasma concentration [21]: 0.00 µM |
| 0.00 | 0.16 | 0.24 | 0.21 | 0.20 | 0.19 | 0.19 | 0.15 | 0.10 | 0.09 | 0.07 | 0.07 | 0.06 | 0.05 | 0.04 | 0.03 | 0.02 | 0.01 | 0.01 | 0.01 | O=C(O)C1=CC(O)C(OS(=O)(=O)O)C(OC2C(COS(=O)(=O)O)OC(OC3C(C(=O)O)OC(OC4C(COS(=O)(=O)O)OC(O)C(NS(=O)(=O)O)C4O)C(OS(=O)(=O)O)C3O)C(NS(=O)(=O)O)C2O)O1 (stereo not shown) [ΔIsIs] | plasma concentration [21]: 0.00 µM |
| 0.00 | 0.24 | 0.30 | 0.26 | 0.23 | 0.20 | 0.19 | 0.16 | 0.11 | 0.10 | 0.08 | 0.07 | 0.06 | 0.04 | 0.03 | 0.03 | 0.02 | 0.01 | 0.01 | 0.00 | O=C(O)C1=CC(O)C(OS(=O)(=O)O)C(OC2C(COS(=O)(=O)O)OC(O)C(NS(=O)(=O)O)C2O)O1 (stereo not shown) [ΔIs] | plasma concentration [21]: 0.00 µM |
